According to patent publication US20240228482A1, “COMPOUNDS, COMPOSITIONS AND METHODS OF TREATING CANCER” (HOTSPOT THERAPEUTICS, INC., priority 2021, published 2024):
pIC50: −log10 of the molar value.

Biological target: T1, CBL-B (Homo sapiens, UniProt Q13191)
T1 construct: GST
Experiment: CBL-B TR-FRET IC50 screening (E1/E2 ubiquitination, Biotin-Ubiquitin, Anti GST-Tb donor / Streptavidin-d2 acceptor)
Type: biochemical
Settings: second part of Table 2 (head 'Patent Cmpd No / Updated Activity'); same CBL-B TR-FRET IC50 bins A-F; read-out: Updated Activity

T1 sequence (Q13191 whole entry): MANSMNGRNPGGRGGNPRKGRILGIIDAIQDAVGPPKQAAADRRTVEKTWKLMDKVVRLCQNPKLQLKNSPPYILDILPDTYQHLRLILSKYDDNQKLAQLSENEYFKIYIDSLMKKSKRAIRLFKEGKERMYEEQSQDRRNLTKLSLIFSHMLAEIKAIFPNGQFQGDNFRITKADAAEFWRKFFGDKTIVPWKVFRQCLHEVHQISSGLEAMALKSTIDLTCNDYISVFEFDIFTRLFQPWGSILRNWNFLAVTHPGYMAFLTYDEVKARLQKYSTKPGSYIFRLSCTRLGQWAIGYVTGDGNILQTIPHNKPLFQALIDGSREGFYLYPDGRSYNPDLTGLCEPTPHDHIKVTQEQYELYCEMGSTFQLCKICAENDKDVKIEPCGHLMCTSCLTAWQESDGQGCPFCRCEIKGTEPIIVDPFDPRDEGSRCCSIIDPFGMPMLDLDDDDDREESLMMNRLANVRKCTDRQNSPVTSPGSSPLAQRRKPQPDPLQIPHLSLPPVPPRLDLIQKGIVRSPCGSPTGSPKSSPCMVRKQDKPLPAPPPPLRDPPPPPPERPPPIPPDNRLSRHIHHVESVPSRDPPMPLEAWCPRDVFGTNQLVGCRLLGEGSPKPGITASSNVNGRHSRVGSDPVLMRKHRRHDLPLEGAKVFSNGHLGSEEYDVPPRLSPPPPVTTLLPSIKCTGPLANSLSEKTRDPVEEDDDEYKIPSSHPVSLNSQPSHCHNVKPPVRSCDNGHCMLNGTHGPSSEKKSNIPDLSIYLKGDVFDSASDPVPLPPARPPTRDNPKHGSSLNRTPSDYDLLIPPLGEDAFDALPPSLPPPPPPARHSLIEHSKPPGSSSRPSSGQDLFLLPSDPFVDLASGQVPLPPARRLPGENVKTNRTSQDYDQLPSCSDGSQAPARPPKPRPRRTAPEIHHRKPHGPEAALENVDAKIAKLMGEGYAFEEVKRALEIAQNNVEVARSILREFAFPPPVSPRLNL

| SMILES | pIC50 |
| --- | --- |
| Cn1cnnc1[C@H](c1cc(C#N)cc(-n2cc3c(C(F)(F)F)cc(CN4CCC5(CC5)C4)cn3c2=O)c1)C1CCC1 (single isomer, unassigned) [Compound 497] | > 7.00 |
| C[C@H](c1cc(C(F)(F)F)c2cn(-c3cccc([C@H](c4nncn4C)C4CCC4)c3)c(=O)n2c1)N1CC[C@@H](F)C1 (single isomer, unassigned) [Compound 500] | > 7.00 |
| C[C@@H](c1cc(C(F)(F)F)c2cn(-c3cccc([C@H](c4nncn4C)C4CCC4)c3)c(=O)n2c1)N1CC[C@@H](F)C1 (single isomer, unassigned) [Compound 501] | > 7.00 |
| Cn1cnnc1[C@@H](c1cc(C#N)cc(-n2cc3c(C(F)(F)F)cc(CN4CCC(C)(F)CC4)cn3c2=O)c1)C1CCC1 (single isomer, unassigned) [Compound 508] | > 7.00 |
| C[C@@H]1CN(Cc2cc(C(F)(F)F)c3cn(-c4cc(C#N)cc([C@H](c5nncn5C)C5CCC5)c4)c(=O)n3c2)CCO1 (single isomer, unassigned) [Compound 509] | > 7.00 |
| Cn1cnnc1[C@@H](c1cc(F)cc(-n2cc3c(C(F)(F)F)cc(CN4CCC5(CC5)C4)cn3c2=O)c1)C1CCC1 (single isomer, unassigned) [Compound 510] | 6.00 to 6.52 |
| C[C@@H]1CN(Cc2cc(C(F)(F)F)c3cn(-c4cc(F)cc([C@H](c5nncn5C)C5CCC5)c4)c(=O)n3c2)CCO1 (single isomer, unassigned) [Compound 511] | < 5.00 |
| CC(=O)N(C)Cc1cc([C@@H](c2nncn2C)C2CCC2)cc(-n2cc3c(C(F)(F)F)cccn3c2=O)c1 (single isomer, unassigned) [Compound 512] | < 5.00 |
| CC(=O)N(C)Cc1cc([C@H](c2nncn2C)C2CCC2)cc(-n2cc3c(C(F)(F)F)cccn3c2=O)c1 (single isomer, unassigned) [Compound 513] | < 5.00 |
| Cn1cnnc1[C@H](c1cc(F)cc(-n2cc3c(C(F)(F)F)cc(CN4CCC5(CC5)C4)cn3c2=O)c1)C1CCC1 (single isomer, unassigned) [Compound 514] | > 7.00 |
| C[C@@H]1CN(Cc2cc(C(F)(F)F)c3cn(-c4cc(F)cc([C@@H](c5nncn5C)C5CCC5)c4)c(=O)n3c2)CCO1 (single isomer, unassigned) [Compound 515] | < 5.00 |
| Cn1cnnc1[C@H](c1cc(C#N)cc(-n2cc3c(C(F)(F)F)cc(CN4CCC(C)(F)CC4)cn3c2=O)c1)C1CCC1 (single isomer, unassigned) [Compound 516] | < 5.00 |
| C[C@@H]1CN(Cc2cc(C(F)(F)F)c3cn(-c4cc(C#N)cc([C@@H](c5nncn5C)C5CCC5)c4)c(=O)n3c2)CCO1 (single isomer, unassigned) [Compound 517] | < 5.00 |
| COCCO[C@H]1CCCN(Cc2cc(C(F)(F)F)c3cn(-c4cccc([C@H](c5nncn5C)C5CCC5)c4)c(=O)n3c2)C1 (single isomer, unassigned) [Compound 518] | > 7.00 |
| COCCO[C@@H]1CCCN(Cc2cc(C(F)(F)F)c3cn(-c4cccc([C@H](c5nncn5C)C5CCC5)c4)c(=O)n3c2)C1 (single isomer, unassigned) [Compound 519] | > 7.00 |
| CO[C@]1(C)C[C@H]([C@H](c2cccc(-n3cc4c(C(F)(F)F)cc(CN5CCC[C@H](C)C5)cn4c3=O)c2)c2nncn2C)C1 (single isomer, unassigned) [Compound 529] | < 5.00 |
| CO[C@]1(C)C[C@H]([C@@H](c2cccc(-n3cc4c(C(F)(F)F)cc(CN5CCC[C@H](C)C5)cn4c3=O)c2)c2nncn2C)C1 (single isomer, unassigned) [Compound 530] | < 5.00 |
| Cn1cnnc1[C@H](c1cc(-c2nnnn2C)cc(-n2cc3c(C(F)(F)F)cccn3c2=O)c1)C1CCC1 (single isomer, unassigned) [Compound 531] | 6.00 to 6.52 |
| Cn1cnnc1[C@@H](c1cc(-c2nnnn2C)cc(-n2cc3c(C(F)(F)F)cccn3c2=O)c1)C1CCC1 (single isomer, unassigned) [Compound 532] | < 5.00 |
| Cn1cnnc1[C@@H](c1cc(F)cc(-n2cc3c(C(F)(F)F)cc(CN4CC5(CC5)C4)cn3c2=O)c1)C1CCC1 (single isomer, unassigned) [Compound 533] | 5.52 to 6.00 |
| Cn1cnnc1[C@@H](c1cc(F)cc(-n2cc3c(C(F)(F)F)cc(CN4CCC(C)(F)CC4)cn3c2=O)c1)C1CCC1 (single isomer, unassigned) [Compound 534] | > 7.00 |
| CNC(=O)Cc1cc([C@@H](c2nncn2C)C2CCC2)cc(-n2cc3c(C(F)(F)F)cccn3c2=O)c1 (single isomer, unassigned) [Compound 537] | < 5.00 |
| CNC(=O)Cc1cc([C@H](c2nncn2C)C2CCC2)cc(-n2cc3c(C(F)(F)F)cccn3c2=O)c1 (single isomer, unassigned) [Compound 538] | < 5.00 |
| Cn1cnnc1[C@H](c1cc(F)cc(-n2cc3c(C(F)(F)F)cc(CN4CC5(CC5)C4)cn3c2=O)c1)C1CCC1 (single isomer, unassigned) [Compound 539] | > 7.00 |

| SMILES | pIC50 |
| --- | --- |
| Cn1cnnc1[C@H](c1cc(F)cc(-n2cc3c(C(F)(F)F)cc(CN4CCC(C)(F)CC4)cn3c2=O)c1)C1CCC1 (single isomer, unassigned) [Compound 540] | 6.00 to 6.52 |
| CO[C@H]1C[C@@H]([C@@H](c2cccc(-n3cc4c(C(F)(F)F)cc(CN5CCC[C@H](C)C5)cn4c3=O)c2)c2nncn2C)C1 (single isomer, unassigned) [Compound 551] | 6.00 to 6.52 |
| CO[C@H]1C[C@H]([C@H](c2cccc(-n3cc4c(C(F)(F)F)cc(CN5CCC[C@H](C)C5)cn4c3=O)c2)c2nncn2C)C1 (single isomer, unassigned) [Compound 552] | 6.00 to 6.52 |
| CO[C@H]1C[C@H]([C@@H](c2cccc(-n3cc4c(C(F)(F)F)cc(CN5CCC[C@H](C)C5)cn4c3=O)c2)c2nncn2C)C1 (single isomer, unassigned) [Compound 553] | > 7.00 |
| CO[C@H]1C[C@@H]([C@H](c2cccc(-n3cc4c(C(F)(F)F)cc(CN5CCC[C@H](C)C5)cn4c3=O)c2)c2nncn2C)C1 (single isomer, unassigned) [Compound 554] | > 7.00 |
| C[C@H]1CCCN(Cc2cc(C(F)(F)F)c3cn(-c4cc(C#N)cc([C@H](c5nncn5C)C5COC5)c4)c(=O)n3c2)C1 (single isomer, unassigned) [Compound 555] | < 5.00 |
| C[C@H]1CCCN(Cc2cc(C(F)(F)F)c3cn(-c4cc(C#N)cc([C@@H](c5nncn5C)C5COC5)c4)c(=O)n3c2)C1 (single isomer, unassigned) [Compound 556] | > 7.00 |
| Cn1cnnc1[C@@H](c1cc(C#N)cc(-n2cc3c(C(F)(F)F)cc(CN4CC5(CC5)C4)cn3c2=O)c1)C1CCC1 (single isomer, unassigned) [Compound 557] | < 5.00 |
| CNC(=O)CCc1cc([C@@H](c2nncn2C)C2CCC2)cc(-n2cc3c(C(F)(F)F)cccn3c2=O)c1 (single isomer, unassigned) [Compound 558] | < 5.00 |
| CNC(=O)CCc1cc([C@H](c2nncn2C)C2CCC2)cc(-n2cc3c(C(F)(F)F)cccn3c2=O)c1 (single isomer, unassigned) [Compound 559] | < 5.00 |
| Cn1cnnc1[C@H](c1cc(C#N)cc(-n2cc3c(C(F)(F)F)cc(CN4CC5(CC5)C4)cn3c2=O)c1)C1CCC1 (single isomer, unassigned) [Compound 560] | > 7.00 |
| Cn1cnnc1[C@@H](c1cccc(-n2cc3c(C(F)(F)F)cc(CN4CCC[C@@](C)(O)C4)cn3c2=O)c1)C1CCC1 (single isomer, unassigned) [Compound 569] | > 7.00 |
| C[C@@H]1CN(Cc2cc(C(F)(F)F)c3cn(-c4cccc([C@H](c5nncn5C)C5CCC5)c4)c(=O)n3c2)CC[C@@H]1O (single isomer, unassigned) [Compound 570] | > 7.00 |
| C[C@H]1CN(Cc2cc(C(F)(F)F)c3cn(-c4cccc([C@H](c5nncn5C)C5CCC5)c4)c(=O)n3c2)CC[C@H]1O (single isomer, unassigned) [Compound 571] | > 7.00 |
| C[C@H](c1cc(C(F)(F)F)c2cn(-c3cccc([C@H](c4nncn4C)C4CCC4)c3)c(=O)n2c1)N1CC[C@H](C#N)C1 (single isomer, unassigned) [Compound 573_P1] | > 7.00 |
| C[C@@H](c1cc(C(F)(F)F)c2cn(-c3cccc([C@H](c4nncn4C)C4CCC4)c3)c(=O)n2c1)N1CC[C@H](C#N)C1 (single isomer, unassigned) [Compound 573_P2] | > 7.00 |
| C[C@H]1CCCN(Cc2cc(C(F)(F)F)c3cn(-c4cccc([C@H](c5nncn5C)[C@H]5C[C@@](C)(O)C5)c4)c(=O)n3c2)C1 (single isomer, unassigned) [Compound 574] | < 5.00 |
| C[C@H]1CCCN(Cc2cc(C(F)(F)F)c3cn(-c4cccc([C@H](c5nncn5C)[C@H]5C[C@](C)(O)C5)c4)c(=O)n3c2)C1 (single isomer, unassigned) [Compound 575] | < 5.00 |
| C[C@H]1CCCN(Cc2cc(C(F)(F)F)c3cn(-c4cccc([C@@H](c5nncn5C)[C@H]5C[C@](C)(O)C5)c4)c(=O)n3c2)C1 (single isomer, unassigned) [Compound 576] | < 5.00 |
| C[C@H]1CCCN(Cc2cc(C(F)(F)F)c3cn(-c4cccc([C@@H](c5nncn5C)[C@H]5C[C@@](C)(O)C5)c4)c(=O)n3c2)C1 (single isomer, unassigned) [Compound 577] | < 5.00 |
| COC1([C@H](c2cccc(-n3cc4c(C(F)(F)F)cc(CN5CCC[C@H](C)C5)cn4c3=O)c2)c2nncn2C)CCC1 (single isomer, unassigned) [Compound 578] | 5.52 to 6.00 |
| COC1([C@@H](c2cccc(-n3cc4c(C(F)(F)F)cc(CN5CCC[C@H](C)C5)cn4c3=O)c2)c2nncn2C)CCC1 (single isomer, unassigned) [Compound 579] | 6.00 to 6.52 |
| C[C@H](c1cc(C(F)(F)F)c2cn(-c3cccc([C@H](c4nncn4C)C4CCC4)c3)c(=O)n2c1)N1CCC[C@H](C(F)(F)F)C1 (single isomer, unassigned) [Compound 580] | 5.00 to 5.52 |
| Cc1cnnn1[C@H](c1cccc(-n2cc3c(C(F)(F)F)cc(CN4CCC[C@H](C)C4)cn3c2=O)c1)C1CCC1 (single isomer, unassigned) [Compound 582] | < 5.00 |
